The values that follow come from ChEMBL document CHEMBL3593195, “Endophytic Diaporthe sp. LG23 Produces a Potent Antibacterial Tetracyclic Triterpenoid” (2015).

The MIC is the smallest concentration in the dilution series that meets the test's criterion for growth inhibition. A high value points to weaker potency.

What all share (format): functional
One assay has as its system Bacillus subtilis. Put plainly: Antibacterial activity against Bacillus subtilis DSM 1088 incubated for 24 hrs by disk diffusion method. Background: Agar diffusion results depend on both activity and mobility in agar.
The next assay deals with Escherichia coli. Nature of the assay: Antibacterial activity against Escherichia coli DSM 682 incubated for 24 hrs by disk diffusion method.
Another assay relates to Staphylococcus aureus. Nature of the assay: Antibacterial activity against Staphylococcus aureus DSM 799 incubated for 24 hrs by disk diffusion method.
For another assay, the system named is Streptococcus pyogenes. Nature of the assay: Antibacterial activity against Streptococcus pyogenes DSM 11728 incubated for 24 hrs by disk diffusion method.
Another assay deals with Pseudomonas aeruginosa. Put plainly: Antibacterial activity against Pseudomonas aeruginosa DSM 22644 incubated for 24 hrs by disk diffusion method.

In brackets after ≈: the same amount, converted by molar mass. Where only a bound is given, the exact number is not on record here.

In the case of `CN[C@@H]1[C@H](O[C@H]2[C@H](O[C@H]3[C@H](O)[C@@H](O)[C@H](N=C(N)N)[C@@H](O)[C@@H]3N=C(N)N)O[C@@H](C)[C@]2(O)C=O)O[C@@H](CO)[C@H](O)[C@H]1O` [STREPTOMYCIN], the MIC was 5 µg/mL (≈ 8.6 µM) against Bacillus subtilis (DSM 1088, 24 h); 1 µg/mL (≈ 1.72 µM) in the assay with Escherichia coli (DSM 682, 24 h); 5 µg/mL (≈ 8.6 µM) in the assay on Staphylococcus aureus (DSM 799, 24 h); more than 10 µg/mL against Streptococcus pyogenes (DSM 11728, 24 h); 10 µg/mL (≈ 17.2 µM) in the assay with Pseudomonas aeruginosa (DSM 22644, 24 h).

Consider `CC(C)[C@@H](C)/C=C/[C@@H](C)[C@H]1CC[C@H]2C3=C[C@H](O)[C@@]4(O)C[C@@H](O)CC[C@]4(C)C3=CC[C@]12C`, for which the MIC was more than 10 µg/mL against Bacillus subtilis (DSM 1088, 24 h); more than 10 µg/mL in the assay on Escherichia coli (DSM 682, 24 h); more than 10 µg/mL in the assay with Staphylococcus aureus (DSM 799, 24 h); more than 10 µg/mL in the assay with Streptococcus pyogenes (DSM 11728, 24 h); more than 10 µg/mL against Pseudomonas aeruginosa (DSM 22644, 24 h).

Consider `CC(C)[C@@H](C)/C=C/[C@@H](C)[C@H]1CC[C@H]2/C(=C/C(=O)O[C@]3(C)CCC=CC3=O)C(=O)CC[C@]12C`, for which the MIC is 5 µg/mL (≈ 11.3 µM) with Bacillus subtilis (DSM 1088, 24 h); more than 10 µg/mL against Escherichia coli (DSM 682, 24 h); 1 µg/mL (≈ 2.27 µM) against Staphylococcus aureus (DSM 799, 24 h); more than 10 µg/mL against Streptococcus pyogenes (DSM 11728, 24 h); more than 10 µg/mL against Pseudomonas aeruginosa (DSM 22644, 24 h).

As to `CC(C)[C@@H](C)/C=C/[C@@H](C)[C@H]1CC[C@H]2C3=CC(=O)[C@@]4(O)C[C@@H](O)CC[C@]4(C)[C@@]3(O)CC[C@]12C`, the MIC in the assay on Bacillus subtilis (DSM 1088, 24 h) is 5 µg/mL (≈ 11.2 µM); in the assay with Escherichia coli (DSM 682, 24 h), more than 10 µg/mL; against Staphylococcus aureus (DSM 799, 24 h), more than 10 µg/mL; against Streptococcus pyogenes (DSM 11728, 24 h), more than 10 µg/mL; with Pseudomonas aeruginosa (DSM 22644, 24 h), more than 10 µg/mL.

`CC(C)[C@@H](C)/C=C/[C@@H](C)[C@H]1CC[C@@]2(O)C3=CC(=O)[C@@]4(O)C[C@@H](O)CC[C@]4(C)[C@@]3(O)CC[C@]12C`: the MIC against Bacillus subtilis (DSM 1088, 24 h) is more than 10 µg/mL; with Escherichia coli (DSM 682, 24 h), more than 10 µg/mL; with Staphylococcus aureus (DSM 799, 24 h), more than 10 µg/mL; with Streptococcus pyogenes (DSM 11728, 24 h), more than 10 µg/mL; in the assay on Pseudomonas aeruginosa (DSM 22644, 24 h), more than 10 µg/mL.

Turning to `CO[C@]12CC[C@]3(C)[C@@H]([C@H](C)/C=C/[C@H](C)C(C)C)CC[C@H]3C1=CC(=O)O2`, the MIC in the assay with Bacillus subtilis (DSM 1088, 24 h) was more than 10 µg/mL; in the assay with Escherichia coli (DSM 682, 24 h) it was more than 10 µg/mL; with Staphylococcus aureus (DSM 799, 24 h) it was more than 10 µg/mL; in the assay with Streptococcus pyogenes (DSM 11728, 24 h) it was more than 10 µg/mL; in the assay with Pseudomonas aeruginosa (DSM 22644, 24 h), more than 10 µg/mL.

As for GENTAMICIN, the MIC came to 1 µg/mL against Bacillus subtilis; 1 µg/mL with Escherichia coli; 1 µg/mL against Staphylococcus aureus; 10 µg/mL against Streptococcus pyogenes; 1 µg/mL in the assay on Pseudomonas aeruginosa.

Regarding `CC(C)[C@@H](C)/C=C/[C@@H](C)[C@H]1CCC2C3=CC(=O)O[C@@]3(O)CC[C@@]21C` (stereo not given in full) [DEMETHYLINCISTEROL A3], the MIC with Bacillus subtilis (DSM 1088, 24 h) is more than 10 µg/mL; against Escherichia coli (DSM 682, 24 h), more than 10 µg/mL; against Staphylococcus aureus (DSM 799, 24 h), more than 10 µg/mL; in the assay with Streptococcus pyogenes (DSM 11728, 24 h), more than 10 µg/mL; with Pseudomonas aeruginosa (DSM 22644, 24 h) it was more than 10 µg/mL.

Take `CC(C)=CC[C@H](O)[C@@H](C)[C@H]1CC[C@@]2(C)c3ccc4c(c3C[C@@H](O)[C@]12C)[C@@H](O)C[C@H](O)C4(C)C`: the MIC against Bacillus subtilis (DSM 1088, 24 h) came out at 2 µg/mL (≈ 4.38 µM); in the assay on Escherichia coli (DSM 682, 24 h) it was 5 µg/mL (≈ 10.9 µM); with Staphylococcus aureus (DSM 799, 24 h) it was 5 µg/mL (≈ 10.9 µM); in the assay with Streptococcus pyogenes (DSM 11728, 24 h), 0.1 µg/mL (≈ 0.219 µM); with Pseudomonas aeruginosa (DSM 22644, 24 h), 2 µg/mL (≈ 4.38 µM).
